From PubChem BioAssay AID328 (DTP/NCI, 2004)
Several values for one entry are separate records, joined by “and”; a condition that tells them apart may be missing. Identical values can stand only once. Inconclusive results and toxic doses are left out.

Tested on: BDF1 mice, P388 leukemia ip, median survival T/C
Assay: NCI In Vivo Anticancer Drug Screen. Data for tumor model P388 Leukemia (intraperitoneal) in B6D2F1 (BDF1) mice
Details: endpoint: median survival time, higher = longer survival
Method in brief: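 In tumour-bearing mice, survival after compound treatment is set against the vehicle group and given as a quotient.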

[1] = dose: 50.0 mg/kg/injection, schedule: Q01DX009 (ip), vehicle: saline with Tween-80
[2] = dose: 100.0 mg/kg/injection, schedule: Q01DX009 (ip), vehicle: saline with Tween-80
[3] = dose: 200.0 mg/kg/injection, schedule: Q01DX009 (ip), vehicle: saline with Tween-80
[4] = dose: 100.0 mg/kg/injection, schedule: Q01DX001 (ip), vehicle: Klucel (hydroxypropylcellulose) (HPC)
[5] = dose: 200.0 mg/kg/injection, schedule: Q01DX001 (ip), vehicle: Klucel (hydroxypropylcellulose) (HPC)
[6] = dose: 400.0 mg/kg/injection, schedule: Q01DX001 (ip), vehicle: Klucel (hydroxypropylcellulose) (HPC)
[7] = dose: 400.0 mg/kg/injection, schedule: Q01DX009 (ip), vehicle: saline with Tween-80
[8] = dose: 200.0 mg/kg/injection, schedule: Q01DX009 (ip), vehicle: saline
[9] = dose: 100.0 mg/kg/injection, schedule: Q04DX003 (ip), vehicle: Klucel (hydroxypropylcellulose) (HPC)
[10] = dose: 400.0 mg/kg/injection, schedule: Q04DX003 (ip), vehicle: Klucel (hydroxypropylcellulose) (HPC)
[11] = dose: 400.0 mg/kg/injection, schedule: Q04DX003 (ip), vehicle: saline sonified
[12] = dose: 100.0 mg/kg/injection, schedule: Q01DX009 (ip), vehicle: saline
[13] = dose: 100.0 mg/kg/injection, schedule: Q04DX003 (ip), vehicle: saline
[14] = dose: 200.0 mg/kg/injection, schedule: Q04DX003 (ip), vehicle: saline
[15] = dose: 50.0 mg/kg/injection, schedule: Q04DX003 (ip), vehicle: saline

SMILES: CCCCC(=O)N(c1ccc(Nc2c3ccccc3nc3cc([N+](=O)[O-])ccc23)cc1)S(C)(=O)=O
- T/C (dose: 0.44 mg/kg/injection, schedule: Q01DX009 (ip), vehicle: saline with Tween-80): 167 % of control
- T/C (dose: 0.66 mg/kg/injection, schedule: Q01DX009 (ip), vehicle: saline with Tween-80): 180 % of control
- T/C (dose: 1.0 mg/kg/injection, schedule: Q01DX009 (ip), vehicle: saline with Tween-80): 194 % of control
- T/C (dose: 1.5 mg/kg/injection, schedule: Q01DX009 (ip), vehicle: saline with Tween-80): 205 % of control
- T/C (dose: 2.2 mg/kg/injection, schedule: Q04DX003 (ip), vehicle: saline with Tween-80): 154 % of control
- T/C (dose: 3.3 mg/kg/injection, schedule: Q04DX003 (ip), vehicle: saline with Tween-80): 150 % of control
- T/C (dose: 5.0 mg/kg/injection, schedule: Q04DX003 (ip), vehicle: saline with Tween-80): 186 % of control
- T/C (dose: 12.5 mg/kg/injection, schedule: Q04DX003 (ip), vehicle: saline with Tween-80): 218 % of control
- T/C (dose: 22.0 mg/kg/injection, schedule: Q04DX003 (ip), vehicle: saline with Tween-80): 250 % of control
- T/C (dose: 25.0 mg/kg/injection, schedule: Q04DX003 (ip), vehicle: saline with Tween-80): 245 % of control
- T/C (dose: 33.0 mg/kg/injection, schedule: Q04DX003 (ip), vehicle: saline with Tween-80): 175 % of control and 209 % of control
- T/C (dose: 50.0 mg/kg/injection, schedule: Q04DX003 (ip), vehicle: saline with Tween-80): 225 % of control and 272 % of control and 181 % of control
- T/C (dose: 75.0 mg/kg/injection, schedule: Q04DX003 (ip), vehicle: saline with Tween-80): 109 % of control and 204 % of control

SMILES: CS(=O)(=O)CC(O)(c1ccccc1)c1cccnc1 (stereo unspecified)
- T/C [1]: 98 % of control
- T/C [2]: 104 % of control
- T/C [3]: 98 % of control

SMILES: O=C1NC(=O)C(c2ccccc2Cl)N1 (stereo unspecified)
- T/C [4]: 104 % of control
- T/C [5]: 112 % of control
- T/C [6]: 112 % of control

SMILES: O=C(/C=C/c1c(Cl)cccc1Cl)c1ccc(Cl)cc1
- T/C [2]: 86 % of control
- T/C [3]: 90 % of control
- T/C [7]: 104 % of control

SMILES: COc1cc(O)c(Cc2ccccc2O)c(O)c1C(=O)CCc1ccccc1
- T/C (dose: 0.5 mg/kg/injection, schedule: Q01DX009 (ip), vehicle: alcohol): 100 % of control
- T/C (dose: 2.0 mg/kg/injection, schedule: Q01DX009 (ip), vehicle: alcohol): 105 % of control
- T/C (dose: 4.0 mg/kg/injection, schedule: Q01DX009 (ip), vehicle: alcohol): 97 % of control
- T/C (dose: 5.9 mg/kg/injection, schedule: Q01DX009 (ip), vehicle: alcohol): 119 % of control
- T/C (dose: 9.0 mg/kg/injection, schedule: Q01DX009 (ip), vehicle: alcohol): 101 % of control

SMILES: C=C(Cl)CSCCCS
- T/C (dose: 130.0 mg/kg/injection, schedule: Q01DX009 (ip), vehicle: saline): 95 % of control
- T/C [8]: 104 % of control
- T/C (dose: 300.0 mg/kg/injection, schedule: Q01DX009 (ip), vehicle: saline): 118 % of control

SMILES: C=C(C)COC(N)=O
- T/C [2]: 108 % of control
- T/C [3]: 104 % of control
- T/C [7]: 87 % of control

SMILES: Cc1ccc(S(=O)(=O)N2CC(O)CC2C(=O)O)cc1 (stereo unspecified)
- T/C (dose: 100.0 mg/kg/injection, schedule: Q01DX001 (ip), vehicle: saline with Tween-80): 118 % of control
- T/C (dose: 200.0 mg/kg/injection, schedule: Q01DX001 (ip), vehicle: saline with Tween-80): 100 % of control
- T/C (dose: 400.0 mg/kg/injection, schedule: Q01DX001 (ip), vehicle: saline with Tween-80): 113 % of control

SMILES: O=S(=O)(Sc1ccc(N(CCCl)CCCl)cc1)c1ccc(N(CCCl)CCCl)cc1
- T/C [2]: 122 % of control
- T/C (dose: 132.0 mg/kg/injection, schedule: Q01DX009 (ip), vehicle: saline with Tween-80): 110 % of control

SMILES: c1cc2cnc3cccc4cnc(c1)c2c43
- T/C (dose: 100.0 mg/kg/injection, schedule: Q01DX001 (ip), vehicle: saline sonified): 100 % of control
- T/C (dose: 400.0 mg/kg/injection, schedule: Q01DX001 (ip), vehicle: saline sonified): 100 % of control

SMILES: O=C1C2CC=CCC2C(=O)N1SC(Cl)(Cl)Cl (stereo unspecified)
- T/C (dose: 6.25 mg/kg/injection, schedule: Q01DX009 (ip), vehicle: saline with Tween-80): 120 % of control
- T/C (dose: 12.5 mg/kg/injection, schedule: Q01DX009 (ip), vehicle: saline with Tween-80): 120 % of control

SMILES: c1cc2c(cc1C1SCSCS1)OCO2
- T/C [9]: 90 % of control
- T/C (dose: 200.0 mg/kg/injection, schedule: Q04DX003 (ip), vehicle: Klucel (hydroxypropylcellulose) (HPC)): 100 % of control
- T/C [10]: 100 % of control

SMILES: O=C(Nc1ccccc1Cl)OCC#CCOC(=O)Nc1ccccc1Cl
- T/C (dose: 100.0 mg/kg/injection, schedule: Q04DX003 (ip), vehicle: saline sonified): 90 % of control
- T/C (dose: 200.0 mg/kg/injection, schedule: Q04DX003 (ip), vehicle: saline sonified): 95 % of control
- T/C [11]: 86 % of control

SMILES: CC(=O)c1c(C)cc(C(C)(C)C)cc1C
- T/C [12]: 109 % of control
- T/C [8]: 100 % of control
- T/C (dose: 400.0 mg/kg/injection, schedule: Q01DX009 (ip), vehicle: saline): 109 % of control

SMILES: CCCCCCCC(=O)NCCCC
- T/C [4]: 104 % of control
- T/C [9]: 91 % of control
- T/C [5]: 86 % of control
- T/C [6]: 104 % of control
- T/C [10]: 100 % of control

SMILES: Nc1cc2ccncc2c2sc3ccccc3c12
- T/C [13]: 104 % of control
- T/C [14]: 97 % of control
- T/C (dose: 400.0 mg/kg/injection, schedule: Q04DX003 (ip), vehicle: saline): 106 % of control

SMILES: [Mg+2]
- T/C (dose: 100.0 mg/kg/injection, schedule: Q01DX010 (ip), vehicle: saline): 100 % of control
- T/C (dose: 200.0 mg/kg/injection, schedule: Q01DX010 (ip), vehicle: saline): 100 % of control
- T/C (dose: 400.0 mg/kg/injection, schedule: Q01DX010 (ip), vehicle: saline): 100 % of control

SMILES: CCc1cc2c(cc1C(=O)CBr)C(C)(C)CCC2(C)C
- T/C (dose: 3.12 mg/kg/injection, schedule: Q01DX009 (ip), vehicle: Klucel (hydroxypropylcellulose) (HPC)): 110 % of control
- T/C (dose: 3.8 mg/kg/injection, schedule: Q04DX003 (ip), vehicle: Klucel (hydroxypropylcellulose) (HPC)): 113 % of control
- T/C (dose: 5.7 mg/kg/injection, schedule: Q04DX003 (ip), vehicle: Klucel (hydroxypropylcellulose) (HPC)): 113 % of control
- T/C (dose: 6.25 mg/kg/injection, schedule: Q01DX009 (ip), vehicle: Klucel (hydroxypropylcellulose) (HPC)): 105 % of control
- T/C (dose: 12.5 mg/kg/injection, schedule: Q01DX009 (ip), vehicle: Klucel (hydroxypropylcellulose) (HPC)): 110 % of control
- T/C (dose: 23.0 mg/kg/injection, schedule: Q04DX003 (ip), vehicle: Klucel (hydroxypropylcellulose) (HPC)): 100 % of control
- T/C (dose: 52.5 mg/kg/injection, schedule: Q04DX003 (ip), vehicle: Klucel (hydroxypropylcellulose) (HPC)): 120 % of control

SMILES: CCOC(=O)Cn1c(=S)sc2ccccc21
- T/C (dose: 25.0 mg/kg/injection, schedule: Q01DX009 (ip), vehicle: saline with Tween-80): 114 % of control
- T/C [1]: 98 % of control and 114 % of control
- T/C [2]: 95 % of control and 120 % of control
- T/C [3]: 93 % of control and 100 % of control

SMILES: COc1ccc(/C(=C\S(C)(=O)=O)c2cccs2)cc1
- T/C [1]: 88 % of control
- T/C [2]: 91 % of control
- T/C [3]: 105 % of control

SMILES: O=C(CC(NC(=O)OCc1ccccc1)c1nn[nH]n1)OCc1ccccc1 (stereo unspecified)
- T/C (dose: 100.0 mg/kg/injection, schedule: Q04DX003 (ip), vehicle: saline with Tween-80): 100 % of control
- T/C (dose: 200.0 mg/kg/injection, schedule: Q04DX003 (ip), vehicle: saline with Tween-80): 95 % of control
- T/C (dose: 400.0 mg/kg/injection, schedule: Q04DX003 (ip), vehicle: saline with Tween-80): 95 % of control

SMILES: NS(=O)(=O)Cc1ccccc1
- T/C (dose: 25.0 mg/kg/injection, schedule: Q04DX003 (ip), vehicle: saline): 100 % of control
- T/C [15]: 100 % of control
- T/C [13]: 100 % of control

SMILES: C[C@H](CCC(=O)O)[C@H]1CC[C@H]2[C@@H]3[C@H](O)C[C@@H]4C[C@H](O)CC[C@]4(C)[C@H]3C[C@H](O)[C@]12C (tested in a mixture with another compound)
- T/C [12]: 155 % of control
- T/C (dose: 132.0 mg/kg/injection, schedule: Q04DX003 (ip), vehicle: saline sonified): 122 % of control
- T/C (dose: 200.0 mg/kg/injection, schedule: Q01DX009 (ip), vehicle: other): 209 % of control
- T/C [8]: 190 % of control
- T/C (dose: 300.0 mg/kg/injection, schedule: Q04DX003 (ip), vehicle: saline sonified): 166 % of control
- T/C [11]: 172 % of control

SMILES: Cn1c2c(sc1=O)CCC2
- T/C [15]: 100 % of control
- T/C [13]: 87 % of control
- T/C [14]: 100 % of control
